{
  "source": "PubChem BioAssay AID1259409",
  "about": "(Chemical Carcinogenesis Research Information System (CCRIS), 2018)",
  "origin": "cited, not measured here",
  "tested_on": "rodent chemically induced tumor inhibition, incidence and multiplicity",
  "experiment": "CCRIS tumor inhibitor studies",
  "conditions": "Dose [Inhibitor]: 0, Route [Inhibitor]: ORAL, Promoter: NONE USED",
  "excerpt": "The CCRIS database contains chemical records with carcinogenicity, mutagenicity, tumor promotion, and tumor inhibition test results. It was developed by the National Cancer Institute (NCI). Data are derived from studies cited in primary journals, current awareness tools, NCI reports, and other sources. Test results have been reviewed by experts in carcinogenesis and mutagenesis.\nCCRIS provides historical information from the years 1985 - 2011. It is no longer updated.\nThis is an archive assay for CCRIS tumor inhibitor studies.",
  "data": [
    {"compound": "CC(C)=CCC/C(C)=C/C=C/C(C)=C/C=C/C(C)=C/C=C/C=C(C)/C=C/C=C(C)/C=C/C=C(\\C)CCC=C(C)C", "values": [
      {"measurement": "tumour outcome (control, treated, inhibition, significance)", "setting": "Carcinogen: DIETHYLNITROSAMINE, 55-18-5, N-METHYL-N-NITROSOUREA, 684-93-5, 1,2-DIMETHYLHYDRAZINE, 306-37-6, Carcinogen: DIETHYLNITROSAMINE, 55-18-5, N-METHYL-N-NITROSOUREA, 684-93-5, 1,2-DIMETHYLHYDRAZINE, 306-37-6, 25 PPM IN DRINKING WATER FOR 21 WK BEGINNING 2 WK POST CARCINOGEN TREATMENT (STUDY DURATION: 32 WK), Species: MOUSE, Strain/Sex: B6C3F1/MALE, Target Tissue: Type of Lesion: LUNG: ADENOMA, Dose [Carcinogen]: 10 MG/KG BW DEN ON DAYS 11 AND 32 OF AGE, 120 PPM MNU IN DRINKING WATER FROM WKS 4 TO 9, 20 MG/KG BW DMH 2/WK FOR 5 WK", "result": "11/16 (69%), 11/16 (69%), 0%, not significant"},
      {"measurement": "tumour outcome (control, treated, inhibition, significance)", "setting": "Carcinogen: DIETHYLNITROSAMINE, 55-18-5, N-METHYL-N-NITROSOUREA, 684-93-5, 1,2-DIMETHYLHYDRAZINE, 306-37-6, Carcinogen: DIETHYLNITROSAMINE, 55-18-5, N-METHYL-N-NITROSOUREA, 684-93-5, 1,2-DIMETHYLHYDRAZINE, 306-37-6, 25 PPM IN DRINKING WATER FOR 21 WK BEGINNING 2 WK POST CARCINOGEN TREATMENT (STUDY DURATION: 32 WK), Species: MOUSE, Strain/Sex: B6C3F1/MALE, Target Tissue: Type of Lesion: LUNG: CARCINOMA, Dose [Carcinogen]: 10 MG/KG BW DEN ON DAYS 11 AND 32 OF AGE, 120 PPM MNU IN DRINKING WATER FROM WKS 4 TO 9, 20 MG/KG BW DMH 2/WK FOR 5 WK", "result": "1/16 (6%), 2/16 (13%), -116%, not significant"},
      {"measurement": "tumour outcome (control, treated, inhibition, significance)", "setting": "Carcinogen: DIETHYLNITROSAMINE, 55-18-5, N-METHYL-N-NITROSOUREA, 684-93-5, 1,2-DIMETHYLHYDRAZINE, 306-37-6, Carcinogen: DIETHYLNITROSAMINE, 55-18-5, N-METHYL-N-NITROSOUREA, 684-93-5, 1,2-DIMETHYLHYDRAZINE, 306-37-6, 50 PPM IN DRINKING WATER FOR 21 WK BEGINNING 2 WK POST CARCINOGEN TREATMENT (STUDY DURATION: 32 WK), Species: MOUSE, Strain/Sex: B6C3F1/FEMALE, Target Tissue: Type of Lesion: LUNG: ADENOMA, Dose [Carcinogen]: 10 MG/KG BW DEN ON DAYS 11 AND 32 OF AGE, 120 PPM MNU IN DRINKING WATER FROM WKS 4 TO 9, 20 MG/KG BW DMH 2/WK FOR 5 WK", "result": "6/16 (38%), 8/15 (53%), -39%, not significant"},
      {"measurement": "tumour outcome (control, treated, inhibition, significance)", "setting": "Carcinogen: DIETHYLNITROSAMINE, 55-18-5, N-METHYL-N-NITROSOUREA, 684-93-5, 1,2-DIMETHYLHYDRAZINE, 306-37-6, Carcinogen: DIETHYLNITROSAMINE, 55-18-5, N-METHYL-N-NITROSOUREA, 684-93-5, 1,2-DIMETHYLHYDRAZINE, 306-37-6, 50 PPM IN DRINKING WATER FOR 21 WK BEGINNING 2 WK POST CARCINOGEN TREATMENT (STUDY DURATION: 32 WK), Species: MOUSE, Strain/Sex: B6C3F1/MALE, Target Tissue: Type of Lesion: LUNG: ADENOMA, Dose [Carcinogen]: 10 MG/KG BW DEN ON DAYS 11 AND 32 OF AGE, 120 PPM MNU IN DRINKING WATER FROM WKS 4 TO 9, 20 MG/KG BW DMH 2/WK FOR 5 WK", "result": "11/16 (69%), 3/16 (19%), 72%, p<0.02"},
      {"measurement": "tumour outcome (control, treated, inhibition, significance)", "setting": "Carcinogen: DIETHYLNITROSAMINE, 55-18-5, N-METHYL-N-NITROSOUREA, 684-93-5, 1,2-DIMETHYLHYDRAZINE, 306-37-6, Carcinogen: DIETHYLNITROSAMINE, 55-18-5, N-METHYL-N-NITROSOUREA, 684-93-5, 1,2-DIMETHYLHYDRAZINE, 306-37-6, 50 PPM IN DRINKING WATER FOR 21 WK BEGINNING 2 WK POST CARCINOGEN TREATMENT (STUDY DURATION: 32 WK), Species: MOUSE, Strain/Sex: B6C3F1/MALE, Target Tissue: Type of Lesion: LUNG: CARCINOMA, Dose [Carcinogen]: 10 MG/KG BW DEN ON DAYS 11 AND 32 OF AGE, 120 PPM MNU IN DRINKING WATER FROM WKS 4 TO 9, 20 MG/KG BW DMH 2/WK FOR 5 WK", "result": "1/16 (6%), 0/16 (0%), 100%, not significant"},
      {"measurement": "tumour outcome (control, treated, inhibition, significance)", "setting": "Carcinogen: N-BUTYL-N-(4-HYDROXYBUTYL)NITROSAMINE, 3817-11-6, 0.0025% IN DRINKING WATER FOR 12 WK BEGINNING POST CARCINOGEN TREATMENT (STUDY DURATION: 20 WK), Species: RAT, Strain/Sex: F344/MALE, Target Tissue: Type of Lesion: URINARY BLADDER: TRANSITIONAL CELL CARCINOMA, Dose [Carcinogen]: 0.05% IN DRINKING WATER FOR 8 WK", "result": "10/12 (83%), 10/12 (83%), 0%, not significant"},
      {"measurement": "tumour outcome (control, treated, inhibition, significance)", "setting": "Carcinogen: N-METHYLNITROSAUREA, 684-93-5, 17 PPM IN TOMATO JUICE AND WATER (1:2) AS DRINKING FLUID FOR DURATION OF STUDY (STUDY DURATION: 35 WK), Species: RAT, Strain/Sex: F344/FEMALE, Target Tissue: Type of Lesion: COLON: TUMOR, Dose [Carcinogen]: 0.4% (0.5 ML) AQUEOUS SOLUTION 3/WK FOR 3 WK", "result": "13/24 (54%), 5/24 (21%), 61%, p<0.02"},
      {"measurement": "tumour outcome (control, treated, inhibition, significance)", "setting": "Carcinogen: N-METHYLNITROSOUREA, 684-93-5, 3.4 PPM IN TOMATO JUICE AND WATER (1:14) AS DRINKING FLUID FOR DURATION OF STUDY (STUDY DURATION: 35 WK), Species: RAT, Strain/Sex: F344/FEMALE, Target Tissue: Type of Lesion: COLON: TUMOR, Dose [Carcinogen]: 0.8% (0.5 ML) AQUEOUS SOLUTION 3/WK FOR 3 WKS", "result": "21/25 (84%), 18/25 (72%), 14%, not significant"},
      {"measurement": "tumour outcome (control, treated, inhibition, significance)", "setting": "Carcinogen: N-METHYLNITROSOUREA, 684-93-5, 17 PPM IN DRINKING WATER FOR DURATION OF STUDY (STUDY DURATION: 35 WK), Species: RAT, Strain/Sex: F344/FEMALE, Target Tissue: Type of Lesion: COLON: TUMOR, Dose [Carcinogen]: 0.4% (0.5 ML) AQUEOUS SOLUTION 3/WK FOR 3 WK", "result": "13/24 (54%), 8/24 (33%), 39%, not significant"},
      {"measurement": "tumour outcome (control, treated, inhibition, significance)", "setting": "Carcinogen: N-METHYLNITROSOUREA, 684-93-5, 17 PPM IN TOMATO JUICE AND WATER (1:2) AS DRINKING FLUID FOR DURATION OF STUDY (STUDY DURATION: 35 WK), Species: RAT, Strain/Sex: F344/FEMALE, Target Tissue: Type of Lesion: COLON: TUMOR, Dose [Carcinogen]: 0.8% (0.5 ML) AQUEOUS SOLUTION 3/WK FOR 3 WK", "result": "21/25 (84%), 10/25 (40%), 52%, p<0.01"}
    ]}
  ]
}
